Laboratory results published in US20260191927A1, “FORMULATION OF THERAPEUTIC AGENTS FOR IMPROVED PERMEATION” (priority 2023, published 2026).

Legend:
[1] = Critical micelle concentration (CMC) of bile salts; assay type: physicochemical; details: approximate values; critical micellular concentration
Text: In some embodiments, a bile acid or salt thereof of the disclosure is characterized by a critical micelle concentration (CMC). In some embodiments, the bile acid or salt thereof aggregates and/or forms micelles at a concentration above the CMC. […] In some embodiments, the method comprises potentiometry, spectrophotometry, nuclear magnetic resonance, viscosimetry, turbidimetry, microcalorimetry, refractometry, conductimetry, cholesterol solubilization, bilirubin monoglucuronide solubilization, dye solubilization, fluorescence, capillary electrophoresis, reverse phase HPLC, freezing point depression, surface tension, and/or light scattering. In some embodiments, the CMC value is an average of at least 3-50 replicates measured by a single technique (e.g., 3-50 replicates measured by potentiometry, 3-50 replicates measured by spectrophotometry, or 3-50 replicates measured by light scattering). In some embodiments, the CMC value is an average of replicates measured by more than one technique, wherein at least 3, 4, 5, 6, 7, 8, 9, or 10 replicates are measured per technique (e.g., an average of (i) at least 3, 4, 5, 6, 7, 8, 9, or 10 replicates measured by potentiometry, (ii) at least 3, 4, 5, 6, 7, 8, 9, or 10 replicates measured by spectrophotometry, (iii) at least 3, 4, 5, 6, 7, 8, 9, or 10 replicates measured by light scattering, (iv) replicates from any pair-wise combination of (i)-(iii), or (v) replicates from a combination of (i)-(iii)).
The bile acids tested in the formulations are identified in Table 2. The bile acids selected for testing vary in the number of hydroxyl groups, stereochemistry of hydroxyl groups, and conjugation at terminal acid.

[2] = test system: porcine ex vivo intestinal tissue; experiment: GI-ORIS ex vivo intestinal permeation assay
Experimental: (§1) A custom device confines larger tissue explants into individual compartments with donor and receiver chambers that face the apical and basolateral faces of the intestinal tissue, respectively. Porcine tissue was dissected as previously described from freshly harvested gastrointestinal tracts and jejunal segments were stored in calcium-free Krebs buffer at 4° C. for 16 hours prior to mounting between the receiver and donor compartments of a GI-ORIS device. Receiver compartments were filled with 150 μL of either 5% Bovine Serum Albumin (for Vancomycin) or 0.1% Ovalbumin (for Calcitonin, Insulin, Semaglutide) solutions prior to tissue mounting. […]
(§2) Vancomycin in receiver fluid samples was detected using LC-TOF. […] Quantification was performed relative to standard curves prepared in receiver fluid with no exposure to peptide.
(§3) Semaglutide in receiver fluid samples was detected using LC-QQQ. […] Quantification was performed relative to standard curves prepared in receiver fluid with no exposure to peptide.
(§4) Calcitonin and Insulin in receiver fluid samples (following a 1000× dilution in PBS) were detected using established protocols of commercial sandwich ELISA kits (Abcam, Waltham, MA, and Thermo Fisher Scientific, Waltham, MA). TMB chromogen absorbance was converted to peptide concentration relative to a standard curve prepared using provided standards in ELISA buffer. […]

[3] = test system: porcine ex vivo intestinal tissue
Experimental: as §1, §2, §3, §4

With `C[C@H](CCC(=O)[O-])[C@H]1CC[C@H]2[C@@H]3[C@H](O)C[C@@H]4C[C@H](O)CC[C@]4(C)[C@H]3CC[C@]12C.[Na+]` [CDCA, sodium chenodeoxycholate] the “CMC” value [1] was 4 mM and the “CMC (mg/mL)” value [1] was 1.6 mg/ mL mg/mL.
With `C[C@H](CCC(=O)[O-])[C@H]1CC[C@H]2[C@@H]3[C@H](O)C[C@@H]4C[C@H](O)CC[C@]4(C)[C@H]3C[C@H](O)[C@]12C.[Na+]` [CHA, sodium cholate] the “CMC” value [1] was 11 mM and the “CMC (mg/mL)” value [1] was 4.5 mg/ mL mg/mL.
In the case of `C[C@H](CCC(=O)[O-])[C@H]1CC[C@H]2[C@@H]3CC[C@@H]4C[C@H](O)CC[C@]4(C)[C@H]3C[C@H](O)[C@]12C.[Na+]` [DCA, sodium deoxycholate], the “CMC” value [1] is reported as 5 mM and the “CMC (mg/mL)” value [1] is reported as 2.0 mg/ ml mg/mL.
For `C[C@H](CCC(=O)NCC(=O)[O-])[C@H]1CC[C@H]2[C@@H]3[C@H](O)C[C@@H]4C[C@H](O)CC[C@]4(C)[C@H]3C[C@H](O)[C@]12C.[Na+]` [GCA, sodium glycocholate], the “CMC” value [1] was 11 mM, the “CMC (mg/mL)” value [1] was 5.4 mg/ mL mg/mL and the “lowest concentration for which a maximal effect on vancomycin permeability was observed” value [2] was 128 mg/mL.
In the case of `C[C@H](CCC(=O)NCC(=O)[O-])[C@H]1CC[C@H]2[C@@H]3[C@H](O)C[C@@H]4C[C@H](O)CC[C@]4(C)[C@H]3CC[C@]12C.[Na+]` [GCDCA, sodium glycochenodeoxycholate], the “CMC” value [1] is reported as 2 mM and the “CMC (mg/mL)” value [1] is reported as 0.9 mg/ mL mg/mL.
In the case of `C[C@H](CCC(=O)NCC(=O)[O-])[C@H]1CC[C@H]2[C@@H]3CC[C@@H]4C[C@H](O)CC[C@]4(C)[C@H]3C[C@H](O)[C@]12C.[Na+]` [GDCA, sodium glycodeoxycholate], the “CMC” value [1] is reported as 2 mM and the “CMC (mg/mL)” value [1] is reported as 0.9 mg/ mL mg/mL.
With `C[C@H](CCC(=O)NCCS(=O)(=O)[O-])[C@H]1CC[C@H]2[C@@H]3[C@H](O)C[C@@H]4C[C@H](O)CC[C@]4(C)[C@H]3C[C@H](O)[C@]12C.[Na+]` [STC, sodium taurocholate] the “enhancement in intestinal permeability of the peptides” value [3] was “greatest enhancement in intestinal permeability”, the “CMC” value [1] was 6 mM and the “CMC (mg/mL)” value [1] was 3.2 mg/ ml mg/mL.
For `C[C@H](CCC(=O)NCCS(=O)(=O)[O-])[C@H]1CC[C@H]2[C@@H]3[C@H](O)C[C@@H]4C[C@H](O)CC[C@]4(C)[C@H]3CC[C@]12C.[Na+]` [TCDCA, sodium taurochenodeoxycholate], the “CMC” value [1] was 4 mM and the “CMC (mg/mL)” value [1] was 2.1 mg/ mL mg/mL.
With `C[C@H](CCC(=O)NCCS(=O)(=O)[O-])[C@H]1CC[C@H]2[C@@H]3CC[C@@H]4C[C@H](O)CC[C@]4(C)[C@H]3C[C@H](O)[C@]12C.[Na+]` [TDCA, sodium taurodeoxycholate] the “CMC” value [1] was 3 mM and the “CMC (mg/mL)” value [1] was 1.6 mg/ mL mg/mL.
